# Reference: patent US20250163006A1, “New Coolants, and Preparations Containing Same” (Symrise AG, priority 2022, published 2025)
# Target: T1, human TRPM8 receptor (Homo sapiens, UniProt Q7Z2W7)
# T1 construct: expressed in transfected cells; host or cells: HEK293, stably transfected, tetracycline-inducible expression
# Test: Assay on TRPM8 modulators: Ca2+-sensitive dye (Fluo-4) fluorescence in HEK293-TRPM8 test cells
# Type: cell-based
# Set-up: relative TRPM8 activation: concentration or dose not given beside the values
# Conditions: HEK293 cells recombinantly expressing human TRPM8
# Source text: The starting point for cloning the human TRPM8 receptor is an LnCaP cDNA bank. This is commercially available (e.g. BioChain, Hayward, USA) or can be produced from the andro gene-sensitive human prostate adenocarcinoma cell line LnCaP (e.g. ATCC, CRL1740 or ECACC, 891 1021 1) using standard kits.
# The coding TRPM8 sequence (see e.g. http://www. ncbi.nlm.nih.gov/entrez/viewer.fcgi?db=nuccore&id=109689694) can be PCR-amplified and cloned using standard methods. The human TRPM8 gene isolated in this way was used to produce the plasmid plnd_M8. Alternatively, the TRPM8 gene can also be produced synthetically.
# A stably transfected HEK293 cell line was produced as a test cell system using human TRPM8 DNA. Preference was given to HEK293, which offers the possibility of inducing TRPM8 expression using tetracycline via the plasmid introduced.
# A test similar to the test already described in the literature by Behrendt H. J. et al, Br. J. Pharmacol. 141, 2004, 737-745, is performed. The agonization or antagonization of the receptor can be quantified using a Ca^2+-sensitive dye (e.g. FURA, Fluo-4 etc.). Agonists alone cause an increase in the Ca^2+ signal; antagonists cause a reduction in the Ca^2+ signal in the presence of e.g. menthol (detected in each case using the Fluo-4 dye, which has different fluorescence properties due to Ca^2+ ions).
# First, a fresh culture of transformed HEK cells is prepared in cell culture flasks in the usual way. The HEK293-TRPM8 test cells are detached from the cell culture flasks using trypsin and 40,000 cells/well are seeded with 100 μl medium in 96-well plates (Greiner #655948 poly-D-lysine-coated). To induce the TRPM8 receptor, tetracycline is added to the growth medium (DMEM/HG, 10% FCS tetracycline-free, 4 mM L-glutamine, 15 μg/ml blasticidin, 100 μg/ml hygromycin B, 1 μg/ml tetracycline).
# On the following day, the cells are loaded with Fluo-4AM dye and the test is performed. Proceed as follows: Addition of 100 μl/well staining solution Ca-4 kit (RB 141, Molecular Devices) to each 100 μl medium (DMEM/HG, 10% FCS tetracycline-free, 4 mM L-glutamine, 15 μg/ml blasticidin, 100 μg/ml hygromycin B, 1 μg/ml tetracycline).
# Incubation in incubator, 30 minutes/37° C./5% CO2, 30 minutes/RT.
# Preparation of the test substances (different concentrations in 200 μl HBSS buffer), as well as positive controls (different concentrations of menthol, icilin or lonomycin in 200 μl HBSS buffer) and negative controls (only 200 μl HBSS buffer) Addition of the test substances in quantities of 50 μl/well and measurement of the fluorescence change (e.g. in the assay device FLIPR, Molecular Devices or NovoStar, BMG) at 485 nm excitation, 520 nm emission, and evaluation of the potency of the different substances/concentrations and determination of the ECG. e.g. in the FLIPR assay device, Molecular Devices or NovoStar, BMG) at 485 nm excitation, 520 nm emission, and evaluation of the potency of the various substances/concentrations and determination of the EC50 values.
# The test substances are used in triplicates in concentrations of 0.1-200 μM in the assay. Normally, the compounds are kept ready in DMSO solutions and diluted down to a maximum DMSO concentration of 2% for the assay.
# The activity of the active substances in relation to activation of the TRPM8 channel is determined using the assay described. This is done in a concentration-dependent manner. For each active substance, 6 to 10 concentrations are measured as standard. A mathematical method (4-parameter or 5-parameter logistic curve fitting) can be used to determine the EC50 value as the inflection point of the sigmoidal curve from the activity values determined. These are standard biochemical methods that are familiar to experts.
# T1 sequence (Q7Z2W7 whole entry): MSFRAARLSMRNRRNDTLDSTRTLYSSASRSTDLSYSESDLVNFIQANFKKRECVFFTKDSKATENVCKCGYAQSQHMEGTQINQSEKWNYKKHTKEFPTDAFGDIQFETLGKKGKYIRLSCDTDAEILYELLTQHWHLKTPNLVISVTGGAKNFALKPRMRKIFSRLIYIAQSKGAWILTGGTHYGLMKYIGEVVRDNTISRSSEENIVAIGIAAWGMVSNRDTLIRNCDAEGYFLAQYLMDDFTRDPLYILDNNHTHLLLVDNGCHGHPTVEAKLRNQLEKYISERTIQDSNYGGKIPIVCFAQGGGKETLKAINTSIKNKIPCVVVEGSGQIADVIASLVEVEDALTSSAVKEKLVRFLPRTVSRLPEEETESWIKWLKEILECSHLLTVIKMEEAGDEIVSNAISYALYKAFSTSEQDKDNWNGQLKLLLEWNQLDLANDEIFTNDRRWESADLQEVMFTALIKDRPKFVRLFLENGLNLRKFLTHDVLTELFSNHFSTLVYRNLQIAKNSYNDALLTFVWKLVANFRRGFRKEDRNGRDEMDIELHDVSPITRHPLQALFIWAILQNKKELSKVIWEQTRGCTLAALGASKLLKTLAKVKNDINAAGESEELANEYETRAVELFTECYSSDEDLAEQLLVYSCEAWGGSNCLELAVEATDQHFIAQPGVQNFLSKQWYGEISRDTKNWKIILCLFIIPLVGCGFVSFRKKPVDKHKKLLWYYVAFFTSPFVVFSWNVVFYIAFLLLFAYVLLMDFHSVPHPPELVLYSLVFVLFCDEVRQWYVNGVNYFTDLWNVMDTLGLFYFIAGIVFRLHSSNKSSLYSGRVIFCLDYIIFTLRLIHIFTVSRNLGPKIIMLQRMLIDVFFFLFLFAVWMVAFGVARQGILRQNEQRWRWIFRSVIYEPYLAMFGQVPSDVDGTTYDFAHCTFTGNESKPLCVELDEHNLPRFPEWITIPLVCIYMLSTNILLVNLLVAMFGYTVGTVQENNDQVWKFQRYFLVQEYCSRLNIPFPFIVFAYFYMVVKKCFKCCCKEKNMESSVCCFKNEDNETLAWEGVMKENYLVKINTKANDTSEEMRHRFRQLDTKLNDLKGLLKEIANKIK
row,relative TRPM8 activation [%],SMILES
1,1,"CNC(=O)C(C)Sc1ncco1 (stereo not drawn) [Compound A-50, N-methyl-2-oxazol-2-ylsulfanyl-propanamide]"
2,1,"CC(C)C(=O)CSc1nc(-c2ccccc2)c(-c2ccccc2)o1 [Compound A-51, 1-(4,5-diphenyloxazol-2-yl)sulfanyl-3-methyl-butan-2-one]"
3,1,"CCCC(C)NC(=O)CSc1nc(-c2ccccc2)c(-c2ccccc2)o1 (stereo not drawn) [Compound A-52, 2-(4,5-diphenyloxazol-2-yl)sulfanyl-N-(1-methylbutyl) acetamide]"
4,1,"COCCNC(=O)CSc1nc(-c2ccccc2)c(-c2ccccc2)o1 [Compound A-53, 2-(4,5-diphenyloxazol-2-yl)sulfanyl-N-(2-methoxyethyl) acetamide]"
5,1,"c1ccc(CSc2nc(-c3ccccc3)c(-c3ccccc3)o2)cc1 [Compound A-54, 2-benzylsulfanyl-4,5-diphenyl-oxazole]"
6,1,"Cc1nc(SC(C)C(=O)NC2CC2)[nH]c1C (stereo not drawn) [Compound A-56, N-cyclopropyl-2-[(4,5-dimethyl-1H-imidazol-2-yl)sulfanyl] propanamide]"
7,1,"CC(=O)OCCSc1nc(-c2ccccc2)c(-c2ccccc2)o1 [Compound A-57, 2-(4,5-diphenyloxazol-2-yl)sulfanylethyl acetate]"
8,1,"COc1ccc(-c2nc(SCC(=O)NC3CC3)oc2-c2ccc(OC)cc2)cc1 [Compound A-58, 2-[4,5-bis(4-methoxyphenyl)oxazol-2-yl]sulfanyl-N-cyclopropyl-acetamide]"
9,1,"CNC(=O)CSc1ncco1 [Compound A-59, N-methyl-2-oxazol-2-ylsulfanyl-acetamide]"
10,0,"OCCSc1nc(-c2ccccc2)c(-c2ccccc2)o1 [Compound A-60, 2-(4,5-diphenyloxazol-2-yl) sulfanylethanol]"
11,0,"CCC(=O)CSc1nc(-c2ccccc2)c(-c2ccccc2)o1 [Compound A-61, 1-(4,5-diphenyloxazol-2-yl)sulfanylbutan-2-one]"
12,0,"CNCCc1nc(-c2ccccc2)c(-c2ccccc2)o1.Cl [Compound A-62, 2-(4,5-diphenyloxazol-2-yl)ethyl-methyl-ammonium; chloride]"
13,−1,"COC(=O)NCCc1nc(-c2ccccc2)c(-c2ccccc2)o1 [Compound A-63, methyl N-[2-(4,5-diphenyloxazol-2-yl)ethyl]carbamate]"
14,−1,CNC(=O)CSc1ncc(-c2ccccc2)[nH]1 [Compound A-64]
15,−1,"CC(C)CNC(=O)CSc1nc(-c2ccccc2)c(-c2ccccc2)o1 [Compound A-65, 2-(4,5-diphenyloxazol-2-yl)sulfanyl-N-isobutyl-acetamide]"
16,−1,"O=C(CSc1ncco1)NC1CC1 [Compound A-66, N-cyclopropyl-2-oxazol-2-ylsulfanyl-acetamide]"

row,relative TRPM8 activation [%],SMILES
1,−2,"COCC(C)NC(=O)CSc1nc(-c2ccccc2)c(-c2ccccc2)o1 (stereo not drawn) [Compound A-67, 2-(4,5-diphenyloxazol-2-yl)sulfanyl-N-(2-methoxy-1-methyl-ethyl)acetamide]"
2,−2,"CNC(=O)CSc1nc(-c2ccc(C)cc2)c(-c2ccc(C)cc2)o1 [Compound A-68, 2-[4,5-bis(p-tolyl)oxazol-2-yl]sulfanyl-N-methyl-acetamide]"
3,−2,"CNC(=O)C(C)Sc1nc(-c2ccc(OC)cc2)c(-c2ccc(OC)cc2)o1 (stereo not drawn) [Compound A-69, 2-[4,5-bis(4-methoxyphenyl)oxazol-2-yl]sulfanyl-N-methyl-propanamide]"
4,−2,"CCCCNC(=O)CSc1nc(-c2ccccc2)c(-c2ccccc2)o1 [Compound A-70, N-butyl-2-(4,5-diphenyloxazol-2-yl)sulfanyl-acetamide]"
5,−3,"CN(C)c1nc(-c2ccccc2)c(-c2ccccc2)o1 [Compound A-71, N,N-dimethyl-4,5-diphenyl-oxazol-2-amine]"
6,−5,"CNC(=O)CSc1nc(-c2ccc(OC)cc2)c(-c2ccc(OC)cc2)o1 [Compound A-72, 2-[4,5-bis(4-methoxyphenyl)oxazol-2-yl]sulfanyl-N-methyl-acetamide]"
7,−5,"COC(=O)CCc1nc(-c2ccccc2)c(-c2ccccc2)o1 [Compound A-73, methyl 3-(4,5-diphenyloxazol-2-yl)propanoate]"
8,87,"CC(Sc1nnc(-c2ccccc2)c(-c2ccccc2)n1)C(=O)NC1CCCC1 (stereo not drawn) [Compound B-22, N-cyclopentyl-2-[(5,6-diphenyl-1,2,4-triazin-3-yl)sulfanyl]propanamide]"
9,73,"CN(C)C(=O)CSc1cnc(-c2ccccc2)c(-c2ccccc2)n1 [Compound B-23, 2-(5,6-diphenylpyrazin-2-yl)sulfanyl-N,N-dimethyl-acetamide]"
10,68,"O=C(CSc1cnc(-c2ccccc2)c(-c2ccccc2)n1)NC1CC1 [Compound B-24, N-cyclopropyl-2-(5,6-diphenylpyrazin-2-yl)sulfanyl-acetamide]"
11,57,"CC(C)C(=O)CSc1nnc(-c2ccccc2)c(-c2ccccc2)n1 [Compound B-25, 1-[(5,6-diphenyl-1,2,4-triazin-3-yl)sulfanyl]-3-methyl-butan-2-one]"
12,56,"CNC(=O)CCSc1nnc(-c2ccccc2)c(-c2ccccc2)n1 [Compound B-26, 3-[(5,6-diphenyl-1,2,4-triazin-3-yl)sulfanyl]-N-methyl-propanamide]"
13,56,"CN(C)C(=O)CSc1nnc(-c2ccccc2)c(-c2ccccc2)n1 [Compound B-27, 2-[(5,6-diphenyl-1,2,4-triazin-3-yl)sulfanyl]-N,N-dimethyl-acetamide]"
14,53,"CC(Sc1nnc(-c2ccccc2)c(-c2ccccc2)n1)C(=O)NCc1ccco1 (stereo not drawn) [Compound B-28, 2-[(5,6-diphenyl-1,2,4-triazin-3-yl)sulfanyl]-N-(2-furylmethyl)propanamide]"
15,42,"CCC(=O)C(C)Sc1nnc(-c2ccccc2)c(-c2ccccc2)n1 (stereo not drawn) [Compound B-29, 2-[(5,6-diphenyl-1,2,4-triazin-3-yl)sulfanyl]pentan-3-one]"

# Same assay, conditions: TRPM8 activation, HEK293-TRPM8 cells, 6 to 10 concentrations, logistic curve fitting; read-out: EC50 value
row,EC50 [nM],SMILES
1,≤ 1000,"CCC(Sc1nnc(-c2ccccc2)c(-c2ccccc2)n1)C(=O)NC (stereo not drawn) [Compound B-03, 2-[(5,6-diphenyl-1,2,4-triazin-3-yl)sulfanyl]-N-methyl-butanamide]"
2,≤ 1000,"CNC(=O)CSc1cnc(-c2ccccc2)c(-c2ccccc2)n1 [Compound B-04, 2-(5,6-diphenylpyrazin-2-yl)sulfanyl-N-methyl-acetamide]"
3,≤ 1000,"CCC(Sc1nnc(-c2ccccc2)c(-c2ccccc2)n1)C(=O)N(C)C (stereo not drawn) [Compound B-05, 2-[(5,6-diphenyl-1,2,4-triazin-3-yl)sulfanyl]-N,N-dimethyl-butanamide]"

# Same assay, conditions: Table 5; HEK293-TRPM8 cells; read-out: TRPM8 EC50
row,EC50 [nM],SMILES
1,70,"CCC(Sc1nnc(-c2ccccc2)c(-c2ccccc2)n1)C(=O)NC (stereo not drawn) [Compound B-03, 2-[(5,6-diphenyl-1,2,4-triazin-3-yl)sulfanyl]-N-methyl-butanamide]"
2,370,"CNC(=O)CSc1cnc(-c2ccccc2)c(-c2ccccc2)n1 [Compound B-04, 2-(5,6-diphenylpyrazin-2-yl)sulfanyl-N-methyl-acetamide]"
3,100,"CCC(Sc1nnc(-c2ccccc2)c(-c2ccccc2)n1)C(=O)N(C)C (stereo not drawn) [Compound B-05, 2-[(5,6-diphenyl-1,2,4-triazin-3-yl)sulfanyl]-N,N-dimethyl-butanamide]"
4,5360,"CC(Sc1nnc(-c2ccccc2)c(-c2ccccc2)n1)C(=O)N1CCCC1 (stereo not drawn) [Compound B-18, 2-[(5,6-diphenyl-1,2,4-triazin-3-yl)sulfanyl]-1-pyrrolidin-1-yl-propan-1-one]"

# Same assay, conditions: Table 7; HEK293-TRPM8 cells; read-out: TRPM8 EC50
row,EC50 [nM],SMILES
1,70,"CCC(Sc1nnc(-c2ccccc2)c(-c2ccccc2)n1)C(=O)NC (stereo not drawn) [Compound B-03, 2-[(5,6-diphenyl-1,2,4-triazin-3-yl)sulfanyl]-N-methyl-butanamide]"
2,370,"CNC(=O)CSc1cnc(-c2ccccc2)c(-c2ccccc2)n1 [Compound B-04, 2-(5,6-diphenylpyrazin-2-yl)sulfanyl-N-methyl-acetamide]"
3,100,"CCC(Sc1nnc(-c2ccccc2)c(-c2ccccc2)n1)C(=O)N(C)C (stereo not drawn) [Compound B-05, 2-[(5,6-diphenyl-1,2,4-triazin-3-yl)sulfanyl]-N,N-dimethyl-butanamide]"
4,5360,"CC(Sc1nnc(-c2ccccc2)c(-c2ccccc2)n1)C(=O)N1CCCC1 (stereo not drawn) [Compound B-18, 2-[(5,6-diphenyl-1,2,4-triazin-3-yl)sulfanyl]-1-pyrrolidin-1-yl-propan-1-one]"
